In patent publication US6096744A, “Sulfonamide derivatives of substituted quinoxaline 2,3-diones as glutamate receptor antagonists” (Warner-Lambert Company, priority 1998, dated 2000):

Key:
AMPA receptors = test: AMPA receptor binding affinity (Honore et al.)
[1] = target: T1, glycine site of the NMDA receptor (Rattus norvegicus, UniProt P35439); test: binding affinity for the glycine site of the NMDA receptor (Jones et al.)
T1 construct: from tissue

[2] = target: kainate site (non-NMDA receptor); test: kainate site (non-NMDA receptor) binding affinity (London and Coyle)

| Structure (SMILES) | IC50 (AMPA receptors) | IC50 [1] | IC50 KA [2] |
| --- | --- | --- | --- |
| Cc1c([N+](=O)[O-])cc2[nH]c(=O)c(=O)[nH]c2c1CN(C)S(C)(=O)=O [Compound 1, N-Methyl-N-(6-methyl-7-nitro-2,3-dioxo-1,2,3,4-tetrahydro-quinoxalin-5-ylmethyl)-methanesulfonamide] | 0.21 µM | 0.1 µM | 0.29 µM |
| Cc1c([N+](=O)[O-])cc2[nH]c(=O)c(=O)[nH]c2c1CN(C)S(=O)(=O)c1ccc2ccccc2c1 [Compound 4, Naphthalene-2-sulfonic acid methyl-(6-methyl-7-nitro-2,3-dioxo-1,2,3,4-tetrahydro-quinoxalin-5-ylmethyl)-amide] | 18 µM | > 1 µM | 26.0 µM |
| Cc1ccc(S(=O)(=O)N(C)Cc2c(C)c([N+](=O)[O-])cc3[nH]c(=O)c(=O)[nH]c23)cc1 [Compound 2, 4,N-Dimethyl-N-(6-methyl-7-nitro-2,3-dioxo-1,2,3,4-tetrahydro-quinoxalin-5-ylmethyl)-benzenesulfonamide] | 0.56 µM | > 1 µM | 2.63 µM |
| Cc1c([N+](=O)[O-])cc2[nH]c(=O)c(=O)[nH]c2c1CN(C)S(=O)(=O)c1c(C(C)C)cc(C(C)C)cc1C(C)C [Compound 3, 2,4,6-Triisopropyl-N-methyl-N-(6-methyl-7-nitro-2,3-dioxo-1,2,3,4-tetrahydro-quinoxalin-5-ylmethyl)-benzenesulfonamide] | 2.6 µM | > 1 µM | 4.77 µM |
